Results reported in patent US20100063007A1, “PESTICIDE C[…]-[…] AND AN I[…] SUBSTANCE” (BAYER CROPSCIENCE AG, priority 2006, published 2010).

Legend:
[1] = test system: Plutella xylostella; experiment: Efficacy Example A: Plutella xylostella test (cabbage leaf dip, larval mortality); format: in vivo; details: mortality of larvae after 6 days
Procedure: Efficacy Example A: Plutella xylostella Test
(§1) After a period of time of 6 days, the mortality is determined. 100% means that all the caterpillars have been killed; 0% means that none of the caterpillars have been killed.

[2] = test system: Spodoptera frugiperda; experiment: Efficacy Example B: Spodoptera frugiperda test (cabbage leaf dip, larval mortality); format: in vivo; details: mortality of larvae after 6 days
Procedure: Efficacy Example B: Spodoptera frugiperda Test
as §1

CN/C(=N\[N+](=O)[O-])NCc1cnc(Cl)s1 [clothianidin]
Efficacy (%) ([1]; rate of application 100 ppm): 80%

O=[N+]([O-])NC1=NCCN1Cc1ccc(Cl)nc1 [imidacloprid]
Efficacy (%) ([2]; rate of application 4 ppm): 30%

N#C/N=C1\SCCN1Cc1ccc(Cl)nc1 [thiacloprid]
Efficacy (%) ([1]; rate of application 20 ppm): 5%

CN1COCN(Cc2cnc(Cl)s2)/C1=N\[N+](=O)[O-] [thiamethoxam]
Efficacy (%) ([2]; rate of application 20 ppm): 0%
